Reference: US10239851B2 (priority 2014, dated 2019)
Structures can show the parent of a compound that is named as a salt.

Columns and labels:
[1] = In vitro dissociation of the water soluble taxane derivatives in blood plasma of rat; type: in vitro ADME, SD rats; conditions: 37° C.
Experimental: The obtained water soluble taxane derivatives were formulated as 0.2 mg/ml aqueous solutions. […] After 2 min, 5 min and 10 min of incubation, 0.2 ml of solutions were respectively taken from each of the samples, and added to acetonitrile (0.4 ml) cooled to −20° C. for precipitation of protein.

[2] = In vitro dissociation of the water soluble taxane derivatives in blood plasma of rabbit; type: in vitro ADME, New Zealand white rabbits; conditions: 37° C.
Experimental: The obtained water soluble taxane derivatives were formulated as 0.2 mg/ml aqueous solutions. […] After 5 min, 20 min and 60 min of incubation, 0.2 ml of solutions were respectively taken from each of the samples, and added to acetonitrile (0.4 ml) cooled to −20° C. for precipitation of protein.

[3] = tested on: human ovarian cancer SK-OV-3; conditions: 24 mg/kg (paclitaxel 16 mg/kg) D0-4 IV; for Tumor volume (D0): D0, at grouping; for Tumor inhibitory percent (%) D22: P=0.000 compared to the control
Source text: Test of the inhibitory activity of the water soluble paclitaxel derivatives on subcutaneously xenografted tumor of human ovarian cancer SK-OV-3 in nude mice: evaluating and comparing the inhibitory activity of the water soluble paclitaxel derivatives of the present invention, paclitaxel and Abraxane® on subcutaneously xenografted tumor of human ovarian cancer SK-OV-3 in nude mice.
Human ovarian cancer SK-OV-3 cells were subcutaneously inoculated to nude mice. After the tumor volume reached 100-150 mm^3, the animals were randomly divided into groups (D0), and administered with the water soluble paclitaxel derivatives of the present invention, paclitaxel, and Abraxane®, respectively once per day for 5 days. The tumor volume was measured 2-3 times per week, the animals were weighed and the data were recorded until day 22 (D22) after grouping.
The tumor volume (V) was calculated according to the equation: V=½×a×b^2, wherein a and b represent the length and the width, respectively.
T/C (%)=(T−T0)/(C−C0)×100, wherein T and C represent the tumor volume at the end of the experiment; and T0 and C0 represent the tumor volume at the beginning of the experiment.

Compound	dissociation percent ([1]; 2 min) [%]	dissociation percent ([1]; 5 min) [%]	dissociation percent ([1]; 10 min) [%]	dissociation percent ([2]; 5 min) [%]	dissociation percent ([2]; 20 min) [%]	dissociation percent ([2]; 60 min) [%]	Tumor volume (D0) [3] [mm^3]	Weight change (%) D4 [3] [%]	T/C (%) D22 [3] [%]	Tumor volume (D22) [3] [mm^3]	Tumor inhibitory percent (%) D22 [3] [%]
2′-O-[5-(N-methyl-N-ethyl)amino-2(R)-2-difluoroethylvaleryl]docetaxel hydrochloride [Compound 12]	43.6	75.6	89.6	35.2	61.3	73.2					
CO[C@H]1C(=O)[C@]2(C)[C@@H](OC)C[C@H]3OC[C@@]3(OC(C)=O)[C@H]2[C@H](OC(=O)c2ccccc2)[C@]2(O)C[C@H](OC(=O)[C@H](OC(=O)[C@H](F)CCN(C)C)[C@@H](NC(=O)OC(C)(C)C)c3ccccc3)C(C)=C1C2(C)C [Compound 07, 2′-O-[4-(N,N-dimethyl)amino-2(R)-fluorobutyryl]cabazitaxel hydrochloride]	49.5	89.6	100	79.2	95.5	100					
CO[C@H]1C(=O)[C@]2(C)[C@@H](OC)C[C@H]3OC[C@@]3(OC(C)=O)[C@H]2[C@H](OC(=O)c2ccccc2)[C@]2(O)C[C@H](OC(=O)[C@H](OC(=O)[C@@H](F)CCN(C)C)[C@@H](NC(=O)OC(C)(C)C)c3ccccc3)C(C)=C1C2(C)C.Cl [Compound 08, 2′-O-[4-(N,N-dimethyl)amino-2(S)-fluorobutyryl]cabazitaxel hydrochloride]	47.6	87.6	100	89.9	93.2	100					
COC1C(=O)C2(C)C(OC)CC3OCC3(OC(C)=O)C2C(OC(=O)c2ccccc2)C2(O)CC(OC(=O)C(OC(=O)C(F)CCN(C)C)C(NC(=O)OC(C)(C)C)c3ccccc3)C(C)=C1C2(C)C.Cl [Compound 09, 2′-O-[4-(N,N-dimethyl)amino-2(R,S)-fluorobutyryl]cabazitaxel hydrochloride]	47.8	89.1	100	83.2	97.1	100					
COC1C(=O)C2(C)C(OC)CC3OCC3(OC(C)=O)C2C(OC(=O)c2ccccc2)C2(O)CC(OC(=O)C(OC(=O)C(CCN)C(F)F)C(NC(=O)OC(C)(C)C)c3ccccc3)C(C)=C1C2(C)C.O=S(=O)([O-])O.[Na+] [Compound 10, 2′-O-[4-amino-2(R)-difluoromethylbutyryl]cabazitaxel sodium bisulfate salt]	45.2	86.5	96.8	38.1	63.2	80.3					
CCN(CC)CC[C@](C)(C(=O)O[C@@H](C(=O)O[C@H]1C[C@@]2(O)[C@@H](OC(=O)c3ccccc3)[C@@H]3[C@]4(OC(C)=O)CO[C@@H]4C[C@H](OC)[C@@]3(C)C(=O)[C@H](OC)C(=C1C)C2(C)C)[C@@H](NC(=O)OC(C)(C)C)c1ccccc1)C(F)(F)F.CS(=O)(=O)O [Compound 11, 2′-O-[4-(N,N-diethyl)amino-2-methyl-2(R)-2-trifluoromethylbutyryl]cabazitaxel methanesulfonate]	52.3	89.6	97.2	56.2	80.5	92.1					
CCN(C)CC[C@@H](F)C(=O)O[C@@H](C(=O)O[C@H]1C[C@@]2(O)[C@@H](OC(=O)c3ccccc3)[C@@H]3[C@]4(OC(C)=O)CO[C@@H]4C[C@H](O)[C@@]3(C)C(=O)[C@H](OC(C)=O)C(=C1C)C2(C)C)[C@@H](NC(=O)c1ccccc1)c1ccccc1.CS(=O)(=O)O [Compound 16, 2′-O-[4-(N-methyl-N-ethyl)amino-2(R)-fluorobutyryl]paclitaxel methanesulfonate]							133.6 ± 9.4	−7.0	−53	55.7 ± 10.6	137
CCN(CC)CC[C@H](F)C(=O)O[C@@H](C(=O)O[C@H]1C[C@@]2(O)[C@@H](OC(=O)c3ccccc3)[C@@H]3[C@]4(OC(C)=O)CO[C@@H]4C[C@H](O)[C@@]3(C)C(=O)[C@H](OC(C)=O)C(=C1C)C2(C)C)[C@@H](NC(=O)c1ccccc1)c1ccccc1.O=C(O)/C=C/C(=O)O [Compound 17, 2′-O-[4-(N,N-diethyl)amino-2(S)-fluorobutyryl]paclitaxel fumarate]							133.6 ± 9.4	−8.1	−44	55.7 ± 10.1	114
CC(=O)O[C@H]1C(=O)[C@@]2(C)[C@H]([C@H](OC(=O)c3ccccc3)[C@]3(O)C[C@H](OC(=O)[C@H](OC(=O)C(F)CCN(C)C(C)C)[C@@H](NC(=O)c4ccccc4)c4ccccc4)C(C)=C1C3(C)C)[C@]1(OC(C)=O)CO[C@@H]1C[C@@H]2O.Cl (stereo partly drawn) [Compound 18, 2′-O-[4-(N-methyl-N-isopropyl)amino-2(R,S)-fluorobutyryl]paclitaxel hydrochloride]							127.9 ± 11.4	−10.3	−38	60.4 ± 12.3	98
CC(=O)OC1C(=O)C2(C)C(O)CC3OCC3(OC(C)=O)C2C(OC(=O)c2ccccc2)C2(O)CC(OC(=O)C(OC(=O)C(CCN(C)C)C(F)(F)F)C(NC(=O)c3ccccc3)c3ccccc3)C(C)=C1C2(C)C.Cc1ccc(S(=O)(=O)O)cc1 [Compound 19, 2′-O-[4-(N,N-dimethyl)amino-2(R,S)-2-trifluoromethylbutyryl]paclitaxel p-toluene sulfonate]							134.9 ± 11.4	−8.9	−48	57.3 ± 11.4	124
CC(=O)O[C@H]1C(=O)[C@@]2(C)[C@H]([C@H](OC(=O)c3ccccc3)[C@]3(O)C[C@H](OC(=O)[C@H](OC(=O)C(CCN(C)C)C(F)F)[C@@H](NC(=O)c4ccccc4)c4ccccc4)C(C)=C1C3(C)C)[C@]1(OC(C)=O)CO[C@@H]1C[C@@H]2O.Cl (stereo partly drawn) [Compound 20, 2′-O-[4-(N,N-dimethyl)amino-2(R,S)-2-difluoromethylbutyryl]paclitaxel hydrochloride]							133.4 ± 12.6	−8.4	−35	61.2 ± 13.5	91
CC(=O)O[C@H]1C(=O)[C@@]2(C)[C@H]([C@H](OC(=O)c3ccccc3)[C@]3(O)C[C@H](OC(=O)[C@H](OC(=O)[C@H](F)CCCN(C)C)[C@@H](NC(=O)c4ccccc4)c4ccccc4)C(C)=C1C3(C)C)[C@]1(OC(C)=O)CO[C@@H]1C[C@@H]2O.O=C(O)/C=C\C(=O)O [Compound 21, 2′-O-[5-(N,N-dimethyl)amino-2(R)-fluorovaleryl]paclitaxel maleate]							135.8 ± 14.7	−9.4	−23	70.8 ± 16.8	60
CC(=O)OC1C(=O)C2(C)C(O)CC3OCC3(OC(C)=O)C2C(OC(=O)c2ccccc2)C2(O)CC(OC(=O)C(OC(=O)C(CCCCN(C)C)C(F)F)C(NC(=O)c3ccccc3)c3ccccc3)C(C)=C1C2(C)C.O=S(=O)(O)O [Compound 22, 2′-O-[6-(N,N-dimethyl)amino-2(S)-2-difluoromethylhexanoyl]paclitaxel sulfate]							133.8 ± 12.2	−11.6	−14	79.8 ± 12.8	36
CC(=O)O[C@H]1C(=O)[C@@]2(C)[C@H]([C@H](OC(=O)c3ccccc3)[C@]3(O)C[C@H](OC(=O)[C@H](OC(=O)[C@H](F)CCN(C)C)[C@@H](NC(=O)c4ccccc4)c4ccccc4)C(C)=C1C3(C)C)[C@]1(OC(C)=O)CO[C@@H]1C[C@@H]2O.CS(=O)(=O)O [Compound C1, 2′-O-[4-(N,N-dimethyl)amino-2(R)-fluorobutyryl]paclitaxel methanesulfonate]	64.3	97.0	100	77.2	98.4	100	133.6 ± 9.5	−5.9	−63		163
CC(=O)O[C@H]1C(=O)[C@@]2(C)[C@H]([C@H](OC(=O)c3ccccc3)[C@]3(O)C[C@H](OC(=O)[C@H](OC(=O)[C@@H](F)CCN(C)C)[C@@H](NC(=O)c4ccccc4)c4ccccc4)C(C)=C1C3(C)C)[C@]1(OC(C)=O)CO[C@@H]1C[C@@H]2O.CS(=O)(=O)O [Compound C2, 2′-O-[4-(N,N-dimethyl)amino-2(S)-fluorobutyryl]paclitaxel methanesulfonate]	62.8	96.5	100	69.7	98.1	100		−5.8	−61	51.2 ± 11.2	158
